Here are results for three compounds from US12012417B2, “N-substituted tetrahydrothienopyridine derivatives and uses thereof” (NOVARTIS AG, priority 2018, dated 2024).

The test system of experiment [1] is Dengue 2 virus MY97-10340. The experiment is described as follows: High-content imaging cell-based flavivirus immunodetection (HCl-CFI) assay, Dengue 2. To be noted: Dengue virus, A549, 48 h, read-out: Dengue 2 virus MY97-10340 in A549 using HCl [Inhibitor/IC50] Qualified AC50, A549 cells, MOI 0.3, 48 h, viral E protein expression. The method, boiled down: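 A549 cells infected at MOI 0.3, treated with 3-fold, 10-point compound dilutions for 48 h. After paraformaldehyde fixation, viral E protein immunostained with 4G2 antibody and nuclei counterstained; imaged by high-content imaging. EC50 = concentration reducing E protein expression by 50%, from dose-response curves.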

Experiment [2] relates to Dengue 4 virus MY01-22713. The experiment is described as follows: High-content imaging cell-based flavivirus immunodetection (HCl-CFI) assay, Dengue 4. To be noted: Dengue virus, A549, 48 h, read-out: Dengue 4 virus MY01-22713 in A549 using HCl [Inhibitor/IC50] Qualified AC50, A549 cells, 48 h, viral E protein expression.
For experiment [3], the system named is DENV-2 (strain TSV01). The experiment is described as follows: Antiviral in vivo efficacy in dengue mouse model. To be noted: 180 mg/kg single dose, oral gavage, AG129 mice, qRT-PCR. (In general: Real-time PCR tracks product formation cycle by cycle.)
Experiment [4] deals with Dengue 1 virus MY97-10245. The experiment is described as follows: High-content imaging cell-based flavivirus immunodetection (HCl-CFI) assay, Dengue 1. To be noted: Dengue virus, A549, 48 h, read-out: Dengue 1 virus MY97-10245 in A549 using HCl [Inhibitor/IC50] Qualified AC50.
Experiment [5] deals with DENV-2 (strain TSV01). The experiment is described as follows: Antiviral in vivo efficacy in dengue mouse model. To be noted: oral gavage, 3 consecutive days, AG129 mice, qRT-PCR. As for the experimental part:
Antiviral In Vivo Efficacy in Dengue Mouse Model
AG129 mice (lacking IFN-α/β and IFN-γ receptors, (Schul, W. et al. 2007. J. Infect. Dis., 195, 665-74)) was obtained from Biological Resource Center (BRC), Singapore. Male and female AG129 mice aged 8 to 14 weeks (weighed 20-30 grams, n=6 per group) were used. Infection of DENV-2 (strain TSV01) was given intraperitoneally (500 μL, 1.4×10^7 pfu/mL). The DENV-2 strain TSVO1 was used in the mouse model and was propagated in C6/36 mosquito cells. Compounds were formulated (% w/w) in either 0.5% methylcellulose, 0.5% Tween and 99.0% deionized water or 20% polyethylene glycol (PEG300), 10% Cremophor RH40, and 70% 100 mM pH 3 citrate buffer (% v/v). Compounds were dosed immediately after infection through oral gavage for 3 consecutive days. Terminal blood sample (anticoagulant: K2EDTA) was obtained for viremia read-out by qRT-PCR as previously described (Santiago, G. A., et al. 2013. PLoS Negl. Trop. Dis., 7, e2311).

Experiment [6] relates to Dengue 3 virus MY05-34640-WT-C6/36. The experiment is described as follows: High-content imaging cell-based flavivirus immunodetection (HCl-CFI) assay, Dengue 3. To be noted: Dengue virus, A549, 48 h, read-out: Dengue 3 virus MY05-34640-WT-C6/36 in A549 using HCl [Inhibitor/IC50] Qualified AC50.

Molecules are shown by their SMILES. pEC50: −log10 of the molar value.

Consider `CC1(C)Cc2sc(NC(=O)Cc3ccc(S(N)(=O)=O)cc3)c(C#N)c2CN1CC1CCCCC1` [Example 71, N-(3-cyano-5-(cyclohexylmethyl)-6,6-dimethyl-4,5,6,7-tetrahydrothieno[3,2-c]pyridin-2-yl)-2-(4-sulfamoylphenyl)acetamide], for which the pEC50 in experiment [1], in experiment [2], in experiment [4] and in experiment [6] was over 7.00 throughout. The “Log DENV-2 viremia reduction” value with DENV-2 (strain TSV01) [3] is recorded as 1.49 Log; in the experiment on DENV-2 (strain TSV01) [5] (10 mg/kg b.i.d.) it was 0.51 Log; with DENV-2 (strain TSV01) [5] (30 mg/kg b.i.d.), 1.45 Log; in the experiment on DENV-2 (strain TSV01) [5] (60 mg/kg q.d.) it was 1.54 Log; in the experiment on DENV-2 (strain TSV01) [5] (100 mg/kg b.i.d.) it was 3.0 Log.

As to `CC1(C)Cc2sc(NC(=O)Cc3ccc(S(N)(=O)=O)cc3)c(C#N)c2CN1CC1CC(F)(F)C1` [Example 77, N-(3-cyano-5-((3,3-difluorocyclobutyl)methyl)-6,6-dimethyl-4,5,6,7-tetrahydrothieno[3,2-c]pyridin-2-yl)-2-(4-sulfamoylphenyl)acetamide], the pEC50 in experiment [1] is over 7.00; in experiment [2], over 7.00; in experiment [4], 6.00 to 7.00; in experiment [6], over 7.00. Moreover, the “Log DENV-2 viremia reduction” value in the experiment with DENV-2 (strain TSV01) [5] (30 mg/kg b.i.d.) was found to be 0.62 Log.

Regarding `N#Cc1c(NC(=O)Cc2ccc(S(N)(=O)=O)cc2)sc2c1CCN(Cc1cc(Cl)ccc1Cl)C2` [Example 109, N-(3-cyano-6-(2,5-dichlorobenzyl)-4,5,6,7-tetrahydrothieno[2,3-c]pyridin-2-yl)-2-(4-sulfamoylphenyl)acetamide], the pEC50 is 6.00 to 7.00 in experiment [1], 6.00 to 7.00 in experiment [2], under 6.00 in experiment [4] and 6.00 to 7.00 in experiment [6]. The “Log DENV-2 viremia reduction” value in the experiment with DENV-2 (strain TSV01) [5] (100 mg/kg b.i.d.) came out at 1.60 Log.
